The values that follow come from US12679843B2, “Pyrrolopyrimidine amines as complement inhibitors” (BioCryst Pharmaceuticals, Inc., priority 2020, dated 2026).

SMILES strings stand for the structures. Bounds are passed on as bounds.

Factor D, sequence (P00746 26-253): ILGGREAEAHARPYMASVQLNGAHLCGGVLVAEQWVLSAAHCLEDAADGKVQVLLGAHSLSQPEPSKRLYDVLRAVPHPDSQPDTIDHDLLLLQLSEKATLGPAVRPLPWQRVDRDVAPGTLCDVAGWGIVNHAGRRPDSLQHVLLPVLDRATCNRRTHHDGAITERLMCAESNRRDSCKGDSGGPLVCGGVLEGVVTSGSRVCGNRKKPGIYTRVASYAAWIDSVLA

The target in the assay is Factor D (Homo sapiens, UniProt P00746). The assay is described as follows: Factor D esterolytic assay (Z-Lys-SBzl thioester substrate, DTNB, 405 nm). Conditions: substrate Z-Lys-SBzl 1.29 mM, 100 mM HEPES, 500 mM NaCl, pH 7.5, 10% DMSO, tested a minimum of three times. Format: biochemical. In outline:
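Human Factor D hydrolysis of Z-Lys-SBzl (1.29 mM) monitored at 405 nm via DTNB thiol detection for 600 s, 690 nm background subtracted. Buffer 100 mM HEPES, 500 mM NaCl, pH 7.5, 10% DMSO; substrate added immediately or after room-temperature preincubation. IC50 from percent inhibition of rate, at least three tests.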
In the case of `COc1cc2c(cc1F)c1c(N)ncnc1n2CC(=O)N1[C@@H]2C[C@@H]2C[C@H]1C(=O)Nc1cccc(Br)n1` [Compound 383g, (1R,3S,5R)-2-(2-(4-amino-6-fluoro-7-methoxy-9H-pyrimido[4,5-b]indol-9-yl)acetyl)-N-(6-bromopyridin-2-yl)-2-azabicyclo[3.1.0]hexane-3-carboxamide], the half-inhibitory concentration (IC50) is under 100 nM.

For `Cc1cc(-c2ccnc(C(F)(F)F)c2)cc2c3c(N)ncnc3n(CC(=O)N3[C@@H]4C[C@@H]4C[C@H]3C(=O)Nc3cccc(Br)n3)c12` [Compound 354c, (1R,3S,5R)-2-(2-(4-amino-8-methyl-6-(2-(trifluoromethyl)pyridin-4-yl)-9H-pyrimido[4,5-b]indol-9-yl)acetyl)-N-(6-bromopyridin-2-yl)-2-azabicyclo[3.1.0]hexane-3-carboxamide], the concentration for half-maximal inhibition (IC50) was under 100 nM.

Take `Nc1ncnc2c1c1ccccc1n2CC(=O)N1C[C@H](F)C[C@H]1C(=O)Nc1cccc(Br)n1` [Compound 19a, (2S,4R)-1-(2-(4-amino-9H-pyrimido[4,5-b]indol-9-yl)acetyl)-N-(6-bromopyridin-2-yl)-4-fluoropyrrolidine-2-carboxamide]: the IC50 was under 100 nM.

With `Cc1ccc2c3c(N)ncnc3n(CC(=O)N3[C@@H]4C[C@@H]4C[C@H]3C(=O)Nc3cccc(Br)n3)c2c1` [Compound 23f, (1R,3S,5R)-2-(2-(4-amino-7-methyl-9H-pyrimido[4,5-b]indol-9-yl)acetyl)-N-(6-bromopyridin-2-yl)-2-azabicyclo[3.1.0]hexane-3-carboxamide], the half-inhibitory concentration (IC50) was under 100 nM.

Take `Nc1ncnc2c1c1cc(-c3ccccc3)ccc1n2CC(=O)N1[C@@H]2C[C@@H]2C[C@H]1C(=O)Nc1cccc(Br)n1` [Compound 62c, (1R,3S,5R)-2-(2-(4-amino-6-phenyl-9H-pyrimido[4,5-b]indol-9-yl)acetyl)-N-(6-bromopyridin-2-yl)-2-azabicyclo[3.1.0]hexane-3-carboxamide]: the IC50 was under 100 nM.

In the case of `Cc1ncc(-c2cc(C)c3c(c2)c2c(N)ncnc2n3CC(=O)N2[C@H](C(=O)Nc3nc(Br)ccc3C)C[C@@]3(C)C[C@@H]23)cn1` [Compound 311a, (1R,3S,5R)-2-(2-(4-amino-8-methyl-6-(2-methylpyrimidin-5-yl)-9H-pyrimido[4,5-b]indol-9-yl)acetyl)-N-(6-bromo-3-methylpyridin-2-yl)-5-methyl-2-azabicyclo[3.1.0]hexane-3-carboxamide], the half-maximal inhibitory concentration (IC50) is under 100 nM.

Take `Nc1ncnc2c1c1ccc(Br)cc1n2CC(=O)N1[C@@H]2C[C@@H]2C[C@H]1C(=O)Nc1cccc(Br)n1` [Compound 52f, (1R,3S,5R)-2-(2-(4-amino-7-bromo-9H-pyrimido[4,5-b]indol-9-yl)acetyl)-N-(6-bromopyridin-2-yl)-2-azabicyclo[3.1.0]hexane-3-carboxamide]: the half-maximal inhibitory concentration (IC50) is under 100 nM.

In the case of `C[C@@]12C[C@@H](C(=O)Nc3cccc(Br)n3)N(C(=O)Cn3c4ccncc4c4c(N)ncnc43)[C@@H]1C2` [Compound 181a, (1R,3S,5R)-2-(2-(4-amino-9H-pyrido[3′,4′:4,5]pyrrolo[2,3-d]pyrimidin-9-yl)acetyl)-N-(6-bromopyridin-2-yl)-5-methyl-2-azabicyclo[3.1.0]hexane-3-carboxamide], the half-inhibitory concentration (IC50) was under 100 nM.

As to `COc1cc([N+](=O)[O-])cc2c3c(N)ncnc3n(CC(=O)N3[C@H](C(=O)Nc4cccc(Br)n4)C[C@@]4(C)C[C@@H]34)c12` [Compound 243a, (1R,3S,5R)-2-(2-(4-amino-8-methoxy-6-nitro-9H-pyrimido[4,5-b]indol-9-yl)acetyl)-N-(6-bromopyridin-2-yl)-5-methyl-2-azabicyclo[3.1.0]hexane-3-carboxamide], the IC50 is under 100 nM.

On to `Nc1ccc2c3c(N)ncnc3n(CC(=O)N3[C@@H]4C[C@@H]4C[C@H]3C(=O)Nc3cccc(Br)n3)c2c1` [Compound 18a, (1R,3S,5R)—N-(6-bromopyridin-2-yl)-2-(2-(4,7-diamino-9H-pyrimido[4,5-b]indol-9-yl)acetyl)-2-azabicyclo[3.1.0]hexane-3-carboxamide], for which the half-inhibitory concentration (IC50) was under 100 nM.

`Nc1ncnc2c1c1ccc(C(F)(F)F)cc1n2CC(=O)N1[C@@H]2C[C@@H]2C[C@H]1C(=O)Nc1cccc(Br)n1` [Compound 16e, (1R,3S,5R)-2-(2-(4-amino-7-(trifluoromethyl)-9H-pyrimido[4,5-b]indol-9-yl)acetyl)-N-(6-bromopyridin-2-yl)-2-azabicyclo[3.1.0]hexane-3-carboxamide]: the IC50 was under 100 nM.

For `Cc1cc(C(F)(F)F)nc2c3c(N)ncnc3n(CC(=O)N3[C@H](C(=O)Nc4cccc(Br)n4)C[C@@]4(C)C[C@@H]34)c12` [Compound 363a, (1R,3S,5R)-2-(2-(4-amino-8-methyl-6-(trifluoromethyl)-9H-pyrido[2′,3′:4,5]pyrrolo[2,3-d]pyrimidin-9-yl)acetyl)-N-(6-bromopyridin-2-yl)-5-methyl-2-azabicyclo[3.1.0]hexane-3-carboxamide], the IC50 was under 100 nM.

For the compound `COc1ccc2c3c(N)ncnc3n(CC(=O)N3[C@H](C(=O)Nc4cccc(Br)n4)C[C@@]4(C)C[C@@H]34)c2c1` [Compound 37a, (1R,3S,5R)-2-(2-(4-amino-7-methoxy-9H-pyrimido[4,5-b]indol-9-yl)acetyl)-N-(6-bromopyridin-2-yl)-5-methyl-2-azabicyclo[3.1.0]hexane-3-carboxamide], the 50% inhibitory concentration (IC50) is under 100 nM.

Consider `Cc1cn(CC(=O)N2C[C@H](F)C[C@H]2C(=O)NCc2cccc(Cl)c2F)c2ncnc(N)c12` [Compound 150d, (2S,4R)-1-(2-(4-amino-5-methyl-7H-pyrrolo[2,3-d]pyrimidin-7-yl)acetyl)-N-(3-chloro-2-fluorobenzyl)-4-fluoropyrrolidine-2-carboxamide], for which the half-inhibitory concentration (IC50) fell in the range of 100 to 1000 nM.

For the compound `Cc1cc(-c2ccncc2)cc2c3c(N)ncnc3n(CC(=O)N3[C@H](C(=O)Nc4cccc(Br)n4)C[C@@]4(C)C[C@@H]34)c12` [Compound 264a, (1R,3S,5R)-2-(2-(4-amino-8-methyl-6-(pyridin-4-yl)-9H-pyrimido[4,5-b]indol-9-yl)acetyl)-N-(6-bromopyridin-2-yl)-5-methyl-2-azabicyclo[3.1.0]hexane-3-carboxamide], the IC50 is under 100 nM.

On to `Cc1ccc2c3c(N)ncnc3n(CC(=O)N3[C@H](C(=O)Nc4cccc(Br)n4)C[C@@]4(C)C[C@@H]34)c2c1` [Compound 24a, (1R,3S,5R)-2-(2-(4-amino-7-methyl-9H-pyrimido[4,5-b]indol-9-yl)acetyl)-N-(6-bromopyridin-2-yl)-5-methyl-2-azabicyclo[3.1.0]hexane-3-carboxamide], for which the 50% inhibitory concentration (IC50) is under 100 nM.

Turning to `Nc1ncnc2c1c1cc(-c3ccc(F)cc3)ccc1n2CC(=O)N1[C@@H]2C[C@@H]2C[C@H]1C(=O)Nc1cccc(Br)n1` [Compound 335c, (1R,3S,5R)-2-(2-(4-amino-6-(4-fluorophenyl)-9H-pyrimido[4,5-b]indol-9-yl)acetyl)-N-(6-bromopyridin-2-yl)-2-azabicyclo[3.1.0]hexane-3-carboxamide], the IC50 is under 100 nM.

With `Nc1ncnc2c1c(-c1ccccc1)cn2CC(=O)N1C[C@H](F)C[C@H]1C(=O)NCc1cccc(Cl)c1F` [Compound 135a, (2S,4R)-1-(2-(4-amino-5-phenyl-7H-pyrrolo[2,3-d]pyrimidin-7-yl)acetyl)-N-(3-chloro-2-fluorobenzyl)-4-fluoropyrrolidine-2-carboxamide], the 50% inhibitory concentration (IC50) lay within 100 to 1000 nM.

For the compound `Nc1ncnc2c1c1cc(C(F)(F)F)ccc1n2CC(=O)N1[C@@H]2C[C@@H]2C[C@H]1C(=O)Nc1cncc(Br)n1` [Compound 260a, (1R,3S,5R)-2-(2-(4-amino-6-(trifluoromethyl)-9H-pyrimido[4,5-b]indol-9-yl)acetyl)-N-(6-bromopyrazin-2-yl)-2-azabicyclo[3.1.0]hexane-3-carboxamide], the IC50 was under 100 nM.

Take `Nc1ncnc2c1c1cc(C(F)(F)F)ccc1n2CC(=O)N1[C@@H]2C[C@@H]2C[C@H]1C(=O)Nc1cccc(Br)c1` [Compound 266b, (1R,3S,5R)-2-(2-(4-amino-6-(trifluoromethyl)-9H-pyrimido[4,5-b]indol-9-yl)acetyl)-N-(3-bromophenyl)-2-azabicyclo[3.1.0]hexane-3-carboxamide]: the half-inhibitory concentration (IC50) was under 100 nM.

Turning to `CC(C)(C)OC(=O)Nc1ccc2c(c1)c1c(N)ncnc1n2CC(=O)N1[C@@H]2C[C@@H]2C[C@H]1C(=O)Nc1cccc(Br)n1` [Compound 48d, tert-butyl (4-amino-9-(2-((1R,3S,5R)-3-((6-bromopyridin-2-yl)carbamoyl)-2-azabicyclo[3.1.0]hexan-2-yl)-2-oxoethyl)-9H-pyrimido[4,5-b]indol-6-yl)carbamate], the IC50 was under 100 nM.

For the compound `Nc1cn(CC(=O)N2[C@@H]3C[C@@H]3C[C@H]2C(=O)Nc2cccc(Br)n2)c2ncncc12` [Compound 129f, (1R,3S,5R)-2-(2-(5-amino-7H-pyrrolo[2,3-d]pyrimidin-7-yl)acetyl)-N-(6-bromopyridin-2-yl)-2-azabicyclo[3.1.0]hexane-3-carboxamide], the half-maximal inhibitory concentration (IC50) lay within 100 to 1000 nM.

With `Cc1cc(-c2ccnc(C(F)(F)F)c2)cc2c3c(N)ncnc3n(CC(=O)N3[C@H](C(=O)Nc4cccc(Br)n4)C[C@@]4(C)C[C@@H]34)c12` [Compound 355a, (1R,3S,5R)-2-(2-(4-amino-8-methyl-6-(2-(trifluoromethyl)pyridin-4-yl)-9H-pyrimido[4,5-b]indol-9-yl)acetyl)-N-(6-bromopyridin-2-yl)-5-methyl-2-azabicyclo[3.1.0]hexane-3-carboxamide], the half-inhibitory concentration (IC50) is under 100 nM.

As to `COc1cc2c(cc1Br)c1c(N)ncnc1n2CC(=O)N1[C@@H]2C[C@@H]2C[C@H]1C(=O)Nc1cccc(Br)n1` [Compound 374g, (1R,3S,5R)-2-(2-(4-amino-6-bromo-7-methoxy-9H-pyrimido[4,5-b]indol-9-yl)acetyl)-N-(6-bromopyridin-2-yl)-2-azabicyclo[3.1.0]hexane-3-carboxamide], the IC50 is under 100 nM.

Broadly, the IC50 is the concentration at which inhibition is half-maximal.
